Columns and labels:
Test in all cases: cells
Assay type in all cases: functional, cell-based, Homo sapiens
Calu-3 = conditions: Homo sapiens, Calu-3;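 note: growth inhibition of human Calu-3 cells, determined with a cell viability assay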
Description: SANGER: Inhibition of human Calu-3 cell growth in a cell viability assay.

D-566MG = conditions: Homo sapiens, D-566MG
H9 = conditions: Homo sapiens, H9
Description: SANGER: Inhibition of human H9 cell growth in a cell viability assay.

HCC1419 = conditions: Homo sapiens, HCC1419;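 note: growth inhibition of human HCC1419 cells, read out as cell viability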
Description: SANGER: Inhibition of human HCC1419 cell growth in a cell viability assay.

HO-1-N-1 = conditions: Homo sapiens, HO-1-N-1;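 note: growth inhibition of human HO-1-N-1 cells, read out with a cell viability assay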
Description: SANGER: Inhibition of human HO-1-N-1 cell growth in a cell viability assay.

HT-29 = conditions: Homo sapiens, HT-29;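 note: growth inhibition of human HT-29 cells, read out by a cell viability assay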
Description: SANGER: Inhibition of human HT-29 cell growth in a cell viability assay.

IGR-1 = conditions: Homo sapiens, IGR-1;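 note: growth inhibition of human IGR-1 cells, read out with a cell viability assay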
Description: SANGER: Inhibition of human IGR-1 cell growth in a cell viability assay.

KOSC-2 = conditions: Homo sapiens, KOSC-2;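 note: growth inhibition of KOSC-2 cells, read out by a cell viability assay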
Description: SANGER: Inhibition of human KOSC-2 cell growth in a cell viability assay.

LU-135 = conditions: Homo sapiens, LU-135
Description: SANGER: Inhibition of human LU-135 cell growth in a cell viability assay.

MDA-MB-157 = conditions: Homo sapiens, MDA-MB-157
Description: SANGER: Inhibition of human MDA-MB-157 cell growth in a cell viability assay.

MHH-ES-1 = conditions: Homo sapiens, MHH-ES-1;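 note: cell growth inhibition measured by a cell viability assay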
Description: SANGER: Inhibition of human MHH-ES-1 cell growth in a cell viability assay.

MIA PaCa-2 = conditions: Homo sapiens, MIA PaCa-2;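 note: growth inhibition of MIA PaCa-2 cells, read out with a cell viability assay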
Description: SANGER: Inhibition of human MIA-PaCa-2 cell growth in a cell viability assay.

NCI-H1975 = conditions: Homo sapiens, NCI-H1975
Description: SANGER: Inhibition of human NCI-H1975 cell growth in a cell viability assay.

NCI-H2342 = conditions: Homo sapiens, NCI-H2342;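 note: growth inhibition of the cancer cell line, determined with a cell viability assay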
Description: SANGER: Inhibition of human NCI-H2342 cell growth in a cell viability assay.

NCI-H2405 = conditions: Homo sapiens, NCI-H2405;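 note: growth inhibition of the human cell line, read out with a cell viability assay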
Description: SANGER: Inhibition of human NCI-H2405 cell growth in a cell viability assay.

NCI-H2452 = conditions: Homo sapiens, NCI-H2452;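 note: growth inhibition of NCI-H2452 cells, read out with a cell viability assay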
Description: SANGER: Inhibition of human NCI-H2452 cell growth in a cell viability assay.

OAW-42 = conditions: Homo sapiens, OAW-42;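 note: growth inhibition of OAW-42 cells, read out with a cell viability assay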
Description: SANGER: Inhibition of human OAW-42 cell growth in a cell viability assay.

PC-14 = conditions: Homo sapiens, PC-14;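 note: cell viability assay measuring inhibition of PC-14 cell growth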
Description: SANGER: Inhibition of human PC-14 cell growth in a cell viability assay.

RH-18 = conditions: Homo sapiens, Rh18;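 note: growth inhibition of human RH-18 cells, read out with a cell viability assay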
Description: SANGER: Inhibition of human RH-18 cell growth in a cell viability assay.

RMG-I = conditions: Homo sapiens, RMG-I;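 note: growth inhibition of human RMG-I cells, read out with a cell viability assay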
Description: SANGER: Inhibition of human RMG-I cell growth in a cell viability assay.

SK-MEL-28 = conditions: Homo sapiens, SK-MEL-28;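 note: growth inhibition of human SK-MEL-28 cells, read out with a cell viability assay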
Description: SANGER: Inhibition of human SK-MEL-28 cell growth in a cell viability assay.

SW 1116 = conditions: Homo sapiens, SW 1116;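 note: growth inhibition of SW1116 cells, read out with a cell viability assay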
Description: SANGER: Inhibition of human SW1116 cell growth in a cell viability assay.

SW948 = conditions: Homo sapiens, SW948;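 note: growth inhibition of SW948 cells, read out with a cell viability assay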
Description: SANGER: Inhibition of human SW948 cell growth in a cell viability assay.

SiHa = conditions: Homo sapiens, SiHa;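 note: Viability-based readout of growth inhibition in SiHa cells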
Description: SANGER: Inhibition of human SiHa cell growth in a cell viability assay.

T47D = conditions: Homo sapiens, T47D;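 note: growth inhibition of human T47D cells, measured with a cell viability assay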
Description: SANGER: Inhibition of human T47D cell growth in a cell viability assay.

A204 = conditions: Homo sapiens, A204;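 note: growth inhibition of human A204 cells, read out with a cell viability assay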
Description: SANGER: Inhibition of human A204 cell growth in a cell viability assay.

ABC-1 = conditions: Homo sapiens, ABC-1;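 note: growth inhibition of human ABC-1 cells, read out by a cell viability assay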
Description: SANGER: Inhibition of human ABC-1 cell growth in a cell viability assay.

CAL-39 = conditions: Homo sapiens, CAL-39;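 note: cell viability assay measuring growth inhibition of CAL-39 cells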
Description: SANGER: Inhibition of human CAL-39 cell growth in a cell viability assay.

CAL-72 = conditions: Homo sapiens, CAL-72;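 note: cell viability assay measuring inhibition of proliferation in the CAL-72 cell line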
Description: SANGER: Inhibition of human CAL-72 cell growth in a cell viability assay.

CAL-85-1 = conditions: Homo sapiens, CAL-85-1;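 note: growth inhibition of human CAL-85-1 cells, read out with a cell viability assay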
Description: SANGER: Inhibition of human CAL-85-1 cell growth in a cell viability assay.

TGBC11TKB = conditions: Homo sapiens, TGBC11TKB;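 note: growth inhibition of human TGBC11TKB cells, measured by a cell viability assay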
Description: SANGER: Inhibition of human TGBC11TKB cell growth in a cell viability assay.

TI-73 = conditions: Homo sapiens, TI-73;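 note: cell viability assay measuring how much compounds suppress growth of the cultured cell line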
Description: SANGER: Inhibition of human TI-73 cell growth in a cell viability assay.

TYK-nu = conditions: Homo sapiens, TYK-nu;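 note: growth inhibition of human TYK-nu cells, read out by a cell viability assay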
Description: SANGER: Inhibition of human TYK-nu cell growth in a cell viability assay.

| SMILES | IC50 (Calu-3) | IC50 (D-566MG) | IC50 (H9) | IC50 (HCC1419) | IC50 (HO-1-N-1) | IC50 (HT-29) | IC50 (IGR-1) | IC50 (KOSC-2) | IC50 (LU-135) | IC50 (MDA-MB-157) | IC50 (MHH-ES-1) | IC50 (MIA PaCa-2) | IC50 (NCI-H1975) | IC50 (NCI-H2342) | IC50 (NCI-H2405) | IC50 (NCI-H2452) | IC50 (OAW-42) | IC50 (PC-14) | IC50 (RH-18) | IC50 (RMG-I) | other results |
| --- | --- | --- | --- | --- | --- | --- | --- | --- | --- | --- | --- | --- | --- | --- | --- | --- | --- | --- | --- | --- | --- |
| Cc1cn(-c2cc(NC(=O)c3ccc(C)c(Nc4nccc(-c5cccnc5)n4)c3)cc(C(F)(F)F)c2)cn1 [NILOTINIB] | > 2000 nM | > 2000 nM | > 2000 nM | > 2000 nM | > 2000 nM | > 2000 nM | > 2000 nM | > 2000 nM | > 2000 nM | > 2000 nM | > 2000 nM | > 2000 nM | > 2000 nM | > 2000 nM | > 2000 nM | > 2000 nM | > 2000 nM | > 2000 nM | > 2000 nM | > 2000 nM | IC50 (SK-MEL-28): > 2000 nM; IC50 (SW 1116): > 2000 nM; IC50 (SW948): > 2000 nM; IC50 (SiHa): > 2000 nM; IC50 (T47D): > 2000 nM; IC50 (A204): 1570 nM; IC50 (ABC-1): > 2000 nM; IC50 (CAL-39): > 2000 nM; IC50 (CAL-72): > 2000 nM; IC50 (CAL-85-1): > 2000 nM; IC50 (TGBC11TKB): > 2000 nM; IC50 (TI-73): > 2000 nM; IC50 (TYK-nu): > 2000 nM |
| Nc1cccc2c1CN(C1CCC(=O)NC1=O)C2=O (centres undefined) [LENALIDOMIDE] | > 5000 nM | > 5000 nM | > 5000 nM | > 5000 nM | > 5000 nM | > 5000 nM | > 5000 nM | > 5000 nM | > 5000 nM | > 5000 nM | > 5000 nM | > 5000 nM | > 5000 nM | > 5000 nM | > 5000 nM | > 5000 nM | > 5000 nM | > 5000 nM | > 5000 nM | > 5000 nM | IC50 (SK-MEL-28): > 5000 nM; IC50 (SW 1116): > 5000 nM; IC50 (SW948): > 5000 nM; IC50 (SiHa): > 5000 nM; IC50 (T47D): > 5000 nM; IC50 (A204): > 5000 nM; IC50 (ABC-1): > 5000 nM; IC50 (CAL-39): > 5000 nM; IC50 (CAL-72): > 5000 nM; IC50 (CAL-85-1): > 5000 nM; IC50 (TGBC11TKB): > 5000 nM; IC50 (TI-73): > 5000 nM; IC50 (TYK-nu): > 5000 nM |
| CO[C@H]1C[C@@H]2CC[C@@H](C)[C@@](O)(O2)C(=O)C(=O)N2CCCC[C@H]2C(=O)O[C@H]([C@H](C)C[C@@H]2CC[C@@H](OC(=O)C(C)(CO)CO)[C@H](OC)C2)CC(=O)[C@H](C)/C=C(\C)[C@@H](O)[C@@H](OC)C(=O)[C@H](C)C[C@H](C)/C=C/C=C/C=C/1C [TEMSIROLIMUS] | > 200 nM | 7.16 nM | 4.88 nM | 25.8 nM | 8.2 nM | > 200 nM | > 200 nM | 167 nM | > 200 nM | > 200 nM | 91.9 nM | > 200 nM | > 200 nM | > 200 nM | > 200 nM | > 200 nM | > 200 nM | > 200 nM | > 200 nM | > 200 nM | IC50 (SK-MEL-28): 131 nM; IC50 (SW 1116): > 200 nM; IC50 (SW948): > 200 nM; IC50 (SiHa): > 200 nM; IC50 (T47D): 107 nM; IC50 (A204): 38.9 nM; IC50 (ABC-1): > 200 nM; IC50 (CAL-39): 40.1 nM; IC50 (CAL-72): > 200 nM; IC50 (CAL-85-1): > 200 nM; IC50 (TGBC11TKB): > 200 nM; IC50 (TI-73): > 200 nM; IC50 (TYK-nu): 0.778 nM |
